Measurements reported in the supplement of paper PMC11061612.

How the values were obtained:
Paclitaxel = compound: CC(=O)O[C@H]1C(=O)[C@@]2(C)[C@H]([C@H](OC(=O)c3ccccc3)[C@]3(O)C[C@H](OC(=O)[C@H](O)[C@@H](NC(=O)c4ccccc4)c4ccccc4)C(C)=C1C3(C)C)[C@]1(OC(C)=O)CO[C@@H]1C[C@@H]2O [Paclitaxel]; details: max 3 µM
In short: (§1)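 Cancer cell lines in 1536-well plates (7.5 μl DMEM/F12 or RPMI, 10% FBS) were held 24 hours at 37°C and 5% CO2 and then dosed for 72 hours at a final DMSO of typically 0.2%. Viability was taken from CellTiter-Glo 2.0 luminescence, scaled between blank-well and DMSO-well means. Curves were fitted as two-parameter logistic models with a non-linear mixed effects model, from which the single-agent IC50 was taken.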

AZD5363 = compound: C1CN(CCC1(C(=O)N[C@@H](CCO)C2=CC=C(C=C2)Cl)N)C3=NC=NC4=C3C=CN4 [AZD5363]; details: max 10 µM
In short: as §1

[1] = compound: O=C(Nc1ccc2[nH]nc(-c3ccncc3)c2c1)[C@@H]1CCN(CC(=O)N2CCN(c3ccc(-c4ncccn4)cc3)CC2)C1; details: max 5 µM
In short: as §1

AZD1390 = compound: CC(C)n1c(=O)n(C)c2cnc3cc(F)c(-c4ccc(OCCCN5CCCCC5)nc4)cc3c21 [AZD1390]; details: max 0.3 µM
In short: as §1

Palbociclib = compound: CC(=O)c1c(C)c2cnc(Nc3ccc(N4CCNCC4)cn3)nc2n(C2CCCC2)c1=O [Palbociclib]; details: max 10 µM
In short: as §1

MK-2206 = compound: NC1(c2ccc(-c3nc4ccn5c(=O)[nH]nc5c4cc3-c3ccccc3)cc2)CCC1 [MK-2206]; details: max 10 µM
In short: as §1

Dasatinib = compound: CC1=C(C(=CC=C1)Cl)NC(=O)C2=CN=C(S2)NC3=CC(=NC(=N3)C)N4CCN(CC4)CCO [Dasatinib]; details: max 2 µM
In short: as §1

Lapatinib = compound: CS(=O)(=O)CCNCc1ccc(-c2ccc3ncnc(Nc4ccc(OCc5cccc(F)c5)c(Cl)c4)c3c2)o1 [Lapatinib]; details: max 10 µM
In short: as §1

Prexasertib = compound: COc1cccc(OCCCN)c1-c1cc(Nc2cnc(C#N)cn2)n[nH]1 [Prexasertib]; details: max 1 µM
In short: as §1

AZD0156 = compound: CN(C)CCCOc1ccc(-c2ccc3ncc4c(c3c2)n(C2CCOCC2)c(=O)n4C)cn1 [AZD0156]; details: max 3 µM
In short: as §1

Gemcitabine = compound: Nc1ccn([C@@H]2O[C@H](CO)[C@@H](O)C2(F)F)c(=O)n1 [Gemcitabine]; details: max 0.3 µM
In short: as §1

Etoposide = compound: COc1cc([C@@H]2c3cc4c(cc3[C@@H](O[C@@H]3O[C@@H]5CO[C@@H](C)O[C@H]5[C@H](O)[C@H]3O)[C@H]3COC(=O)[C@H]23)OCO4)cc(OC)c1O [Etoposide]; details: max 10 µM
In short: as §1

Carboplatin = compound: C1CC(C1)(C(=O)[O-])C(=O)[O-].N.N.[Pt+2] [Carboplatin]; details: max 10 µM
In short: as §1

Doxorubicin = compound: COc1cccc2c1C(=O)c1c(O)c3c(c(O)c1C2=O)C[C@@](O)(C(=O)CO)C[C@@H]3O[C@H]1C[C@H](N)[C@H](O)[C@H](C)O1 [Doxorubicin]; details: max 1 µM
In short: as §1

Savolitinib = compound: C[C@@H](c1ccc2nccn2c1)n1nnc2ncc(-c3cnn(C)c3)nc21 [Savolitinib]; details: max 1 µM
In short: as §1

SN-38 = compound: CCc1c2c(nc3ccc(O)cc13)-c1cc3c(c(=O)n1C2)COC(=O)[C@]3(O)CC [SN-38]; details: max 0.3 µM
In short: as §1

Taselisib = compound: Cc1nc(-c2cn3c(n2)-c2ccc(-c4cnn(C(C)(C)C(N)=O)c4)cc2OCC3)n(C(C)C)n1 [Taselisib]; details: max 10 µM
In short: as §1

AZD4320 = compound: CN(CC[C@H](CSC1=CC=CC=C1)NC2=C(C=C(C=C2)S(=O)(=O)NC(=O)C3=CC=C(C=C3)N4CCC(CC4)[C@H](C5=CC=CC=C5C6=CC=C(C=C6)Cl)O)S(=O)(=O)C(F)(F)F)CCO [AZD4320]; details: max 1 µM
In short: as §1

Trametinib = compound: CC(=O)Nc1cccc(-n2c(=O)n(C3CC3)c(=O)c3c(Nc4ccc(I)cc4F)n(C)c(=O)c(C)c32)c1 [Trametinib]; details: max 1 µM
In short: as §1

AZD8186 = compound: C[C@@H](Nc1cc(F)cc(F)c1)c1cc(C(=O)N(C)C)cc2c(=O)cc(N3CCOCC3)oc12 [AZD8186]; details: max 10 µM
In short: as §1

AZD1775 = compound: C=CCn1c(=O)c2cnc(Nc3ccc(N4CCN(C)CC4)cc3)nc2n1-c1cccc(C(C)(C)O)n1 [AZD1775]; details: max 3 µM
In short: as §1

5-Fluorouracil = compound: O=c1[nH]cc(F)c(=O)[nH]1 [5-Fluorouracil]; details: max 20 µM
In short: as §1

Gefitinib = compound: COc1cc2ncnc(Nc3ccc(F)c(Cl)c3)c2cc1OCCCN1CCOCC1 [Gefitinib]; details: max 10 µM
In short: as §1

Olaparib = compound: O=C(c1cc(Cc2n[nH]c(=O)c3ccccc23)ccc1F)N1CCN(C(=O)C2CC2)CC1 [Olaparib]; details: max 10 µM
In short: as §1

SRA737 = compound: N#Cc1cnc(Nc2cc(NC[C@H]3CNCCO3)c(C(F)(F)F)cn2)cn1 [SRA737]; details: max 10 µM
In short: as §1

AZD5153 = compound: COc1nnc2ccc(N3CCC(c4ccc(OCCN5CCN(C)C(=O)[C@H]5C)cc4)CC3)nn12 [AZD5153]; details: max 1 µM
In short: as §1

Crizotinib = compound: C[C@@H](Oc1cc(-c2cnn(C3CCNCC3)c2)cnc1N)c1c(Cl)ccc(F)c1Cl [Crizotinib]; details: max 10 µM
In short: as §1

AZD6738 = compound: C[C@@H]1COCCN1C2=NC(=NC(=C2)C3(CC3)[S@](=N)(=O)C)C4=C5C=CNC5=NC=C4 [AZD6738]; details: max 10 µM
In short: as §1

Selumetinib = compound: Cn1cnc2c(F)c(Nc3ccc(Br)cc3Cl)c(C(=O)NOCCO)cc21 [Selumetinib]; details: max 10 µM
In short: as §1

Alisertib = compound: COc1cc(Nc2ncc3c(n2)-c2ccc(Cl)cc2C(c2c(F)cccc2OC)=NC3)ccc1C(=O)O [Alisertib]; details: max 10 µM
In short: as §1

AZD2811 = compound: CCN(CCO)CCCOc1ccc2c(Nc3cc(CC(=O)Nc4cccc(F)c4)[nH]n3)ncnc2c1 [AZD2811]; details: max 1 µM
In short: as §1

AZD7648 = compound: Cc1cc2ncnn2cc1Nc1ncc2c(n1)n(C1CCOCC1)c(=O)n2C [AZD7648]; details: max 10 µM
In short: as §1

AZD5991 = compound: Cc1c2c(nn1C)CSCc1cc(n(C)n1)CSc1cc(c3ccccc3c1)OCCCc1c(C(=O)O)n(C)c3c-2c(Cl)ccc13 [AZD5991]; details: max 1 µM
In short: as §1

Venetoclax = compound: CC1(C)CCC(CN2CCN(c3ccc(C(=O)NS(=O)(=O)c4ccc(NCC5CCOCC5)c([N+](=O)[O-])c4)c(Oc4cnc5[nH]ccc5c4)c3)CC2)=C(c2ccc(Cl)cc2)C1 [Venetoclax]; details: max 1 µM
In short: as §1

SG3199 = compound: CC1=CN2[C@@H](C1)C=NC3=CC(=C(C=C3C2=O)OC)OCCCCCOC4=C(C=C5C(=C4)N=C[C@@H]6CC(=CN6C5=O)C)OC [SG3199]; details: max 0.001 µM
In short: as §1

Cell Line | IC50, cell viability 72 h (Paclitaxel) [nM] | IC50, cell viability 72 h (AZD5363) [nM] | IC50, cell viability 72 h [1] [nM] | IC50, cell viability 72 h (AZD1390) [nM] | IC50, cell viability 72 h (Palbociclib) [nM] | IC50, cell viability 72 h (MK-2206) [nM] | IC50, cell viability 72 h (Dasatinib) [nM] | IC50, cell viability 72 h (Lapatinib) [nM] | IC50, cell viability 72 h (Prexasertib) [nM] | IC50, cell viability 72 h (AZD0156) [nM] | IC50, cell viability 72 h (Gemcitabine) [nM] | IC50, cell viability 72 h (Etoposide) [nM] | IC50, cell viability 72 h (Carboplatin) [nM] | IC50, cell viability 72 h (Doxorubicin) [nM] | IC50, cell viability 72 h (Savolitinib) [nM] | IC50, cell viability 72 h (SN-38) [nM] | IC50, cell viability 72 h (Taselisib) [nM] | IC50, cell viability 72 h (AZD4320) [nM] | IC50, cell viability 72 h (Trametinib) [nM] | IC50, cell viability 72 h (AZD8186) [nM] | IC50, cell viability 72 h (AZD1775) [nM] | IC50, cell viability 72 h (5-Fluorouracil) [nM] | IC50, cell viability 72 h (Gefitinib) [nM] | IC50, cell viability 72 h (Olaparib) [nM] | IC50, cell viability 72 h (SRA737) [nM] | IC50, cell viability 72 h (AZD5153) [nM] | IC50, cell viability 72 h (Crizotinib) [nM] | IC50, cell viability 72 h (AZD6738) [nM] | IC50, cell viability 72 h (Selumetinib) [nM] | IC50, cell viability 72 h (Alisertib) [nM] | IC50, cell viability 72 h (AZD2811) [nM] | IC50, cell viability 72 h (AZD7648) [nM] | IC50, cell viability 72 h (AZD5991) [nM] | IC50, cell viability 72 h (Venetoclax) [nM] | IC50, cell viability 72 h (SG3199) [nM]
SK-OV-3 (Ovarian Carcinoma) | 732 | > 10000 | > 5000 | > 300 | > 10000 | > 10000 | > 2000 | > 10000 | 35.5 | > 3000 | > 300 | > 10000 | > 10000 | > 1000 | > 1000 | > 300 | 2680 | > 1000 | > 1000 | > 10000 | 2450 | > 20000 | > 10000 | > 10000 | > 10000 | > 1000 | > 10000 | > 10000 | > 10000 | > 10000 | > 1000 | > 10000 | > 1000 | > 1000 | > 1
SU-DHL-6 (B-Cell Non-Hodgkin's Lymphoma) | 4.04 | 301 | > 5000 | > 300 | 3570 | 569 | 17.8 | 4980 | > 1000 | 2970 | 36.4 | 1260 | > 10000 | 181 | > 1000 | 8.04 | 14.4 | 107 | > 1000 | 228 | 676 | > 20000 | > 10000 | > 10000 | > 10000 | 48.9 | 2840 | > 10000 | > 10000 | 1090 | > 1000 | > 10000 | 32.6 | 244 | > 1
SUP-T1 (T-Lymphoblastic Leukemia) | 13.6 | 3600 | > 5000 | > 300 | 2360 | 7710 | > 2000 | > 10000 | 21.8 | > 3000 | 16.7 | 805 | > 10000 | 145 | > 1000 | 3.19 | 1730 | > 1000 | > 1000 | > 10000 | 272 | > 20000 | > 10000 | > 10000 | 7670 | 117 | 2730 | 3280 | > 10000 | 1590 | > 1000 | > 10000 | > 1000 | > 1000 | > 1
SW1116 (Colorectal Carcinoma) | 2740 | > 10000 | > 5000 | > 300 | > 10000 | > 10000 | > 2000 | > 10000 | 824 | > 3000 | > 300 | > 10000 | > 10000 | > 1000 | > 1000 | > 300 | > 10000 | > 1000 | 242 | > 10000 | > 3000 | > 20000 | > 10000 | > 10000 | > 10000 | > 1000 | > 10000 | > 10000 | > 10000 | > 10000 | > 1000 | > 10000 | > 1000 | > 1000 | > 1
SW1271 (Small Cell Lung Carcinoma) | 630 | > 10000 | > 5000 | > 300 | > 10000 | > 10000 | > 2000 | > 10000 | 137 | > 3000 | > 300 | > 10000 | > 10000 | > 1000 | > 1000 | 143 | > 10000 | > 1000 | 614 | > 10000 | 1970 | > 20000 | > 10000 | > 10000 | > 10000 | 947 | > 10000 | > 10000 | > 10000 | > 10000 | > 1000 | > 10000 | > 1000 | > 1000 | > 1
